Molecules are shown by their SMILES. pIC50: −log10 of the molar value. Where only a bound is given, the exact number is not on record here.

This note sets out measurements from patent US8420657B2 (Novartis AG, priority 2008, dated 2013).

Assay [1] addresses T1, GST-JAK2(808-1132) (Homo sapiens, UniProt O60674).
T1 construct: GST-JAK2(808-1132); purchased Invitrogen (Carlsbad, USA) #4288
Nature of the assay: JAK2 kinase assay (Caliper mobility shift, LabChip 3000). The format is biochemical. The gist of the method: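 Eight-point compound series (final 10–0.003 μM) tested on purchased GST-JAK2 kinase domain (808-1132). Peptide FITC-JAK3tide plus ATP reacted 60 min, 30 °C, then quenched with EDTA; turnover from charge-based separation of substrate and product.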

Assay [2] has as its system JAK2-dependent nuclear translocation of STAT5-GFP in U-2 OS osteosarcoma cells. Nature of the assay: STAT5 nuclear translocation assay (Cellomics), rhEpo stimulated U-2 OS STAT5-GFP cells. The format is cell-based. To be noted: Homo sapiens, U2OS; STAT5 translocation pathway. From the text:
The medium-throughput (96-well format) cellular automated fluorescence microscopy Cellomics assay can be routinely used to assess the functional activation of Janus Kinases (JAKs), based on the nuclear translocation of their substrate, Signal Transducer and Activator of Transcription (STAT). Nuclear translocation can be monitored either in HT1080 fibrosarcoma cells stably transfected with STAT1 fused to Green Fluorescence Protein (GFP) or in U-2 OS osteosarcoma cells stably transfected with STAT5 fused to Green Fluorescence Protein (GFP). Stimulation of HT1080 cells with interferon-γ (IFN-γ) results in JAK1/JAK2-dependent nuclear translocation of STAT1-GFP, whereas stimulation of U-2 OS cells with recombinant human erythropoietin (rhEpo) results in JAK2-dependent nuclear translocation of STAT5-GFP, both of which can be quantified using the Cellomics Cyto/NucTrans software package. This assay may be used to provide an assessment of the nuclear-cytoplasmic differential (NCD) of STAT-GFP using Hoechst dye to define the boundaries of the nucleus.
U-2 OS osteosarcoma cells may be obtained from ATCC and can be cultured in standard RPMI medium supplemented with 10% FCS and 2 mM L-glutamine. Cells can be stably transfected with STAT5a-GFP using Lipofectamine following the manufacturers' protocol. 24 hours after transfection the medium can be replaced and selected in 400 μg/ml Geneticin. Subsequently, cells can be stably transfected with EpoR using Lipofectamine following the manufacturers' protocol. 24 hours after transfection the medium can be replaced and cells selected in 100 μg/ml Hygromycin B.
Compounds can be dissolved in DMSO to a final stock concentration of 10 mM and stored as aliquots at 4° C. Compounds may be pre-diluted in 100% DMSO at 10 mM, 3 mM 1 mM, 0.3 mM, 0.1 mM, 0.03 mM, 0.01 mM and 0.003 mM. Subsequently, compounds may be diluted in medium and added in 50 μl to the cells. The final compound concentrations tested may be 10 μM, 3 μM 1 μM, 0.3 μM, 0.1 μM, 0.03 μM, 0.01 μM and 0.003 μM and the final DMSO concentration can be 0.1%.
U-2 OS may be seeded at a cell density of 12,000 cells per well in clear-bottom black 96-well Packard View-Plates™. The following day, medium can be removed and replaced with medium containing either the vehicle (DMSO) or increasing concentrations of test compounds for 30 minutes at 37° C. Cells can then be stimulated for 1 hour by adding 10 μl per well of 50 U/ml rhEpo to obtain 5 U/ml of rhEpo as the final concentration. Following treatments, cells can fixed and processed as described above.
The plates can be read on a Cellomics® ArrayscanII automated fluorescence microscope plate reader equipped with a Mercury-Xenon white light illumination source and a Zeiss Axiovert inverted microscope, using the XF100 dichroic/emission filter cube and matching excitation filters, 10× magnification, and a 0.3 numerical aperture objective. Image acquisition and analysis can be performed using a customized protocol based on the ‘NuclearTranslocation’ Bioapplication. For each well, multiple images (fields) can be acquired until a minimum of 1000 cells are counted using two 2 channels: Channel 1 (Hoechst)=focus+nuclear mask, Channel 2 (GFP)=signal quantification in mask areas as outlined below. Nuclei may be first identified based on the Hoechst staining and a mask generated for each nucleus that then serves as a template to generate a circle (eroded inwards by 1 pixel) and a 3 pixel-wide collar-like ring (off-set outwards by 1 pixel), in which the nuclear and cytoplasmic intensity of GFP, respectively, are quantified in the corresponding channel. High content analysis yields numerous measurements per cell and the GFP intensity differential between the nuclear and the cytoplasmic masks may be chosen as a measure of sub-cellular STAT-GFP relocation. The resulting values may be averaged for all cells in the well to return a single measurement plus standard deviation. […]

T1 sequence (O60674 808-1132): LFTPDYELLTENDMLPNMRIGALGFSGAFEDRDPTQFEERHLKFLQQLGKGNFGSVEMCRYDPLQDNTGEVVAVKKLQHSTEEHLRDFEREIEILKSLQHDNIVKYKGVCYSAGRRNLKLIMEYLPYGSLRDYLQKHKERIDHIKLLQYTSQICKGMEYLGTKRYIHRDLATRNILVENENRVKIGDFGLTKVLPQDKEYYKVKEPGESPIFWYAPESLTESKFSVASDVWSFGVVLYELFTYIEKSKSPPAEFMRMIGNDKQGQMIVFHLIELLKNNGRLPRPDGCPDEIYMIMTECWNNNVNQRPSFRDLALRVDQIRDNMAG

The pIC50 is −log10 of the IC50, conventionally taken in molar units. In the case of `COC1CCN(Cc2cc(Nc3ncc4ccn(-c5cc(F)c(CN6CCOCC6)c(F)c5)c4n3)ccc2C)C1` (racemic) [Example 417, [7-(3,5-Difluoro-4-morpholin-4-ylmethyl-phenyl)-7H-pyrrolo[2,3-d]pyrimidin-2-l]-[3-(3-methoxy-pyrrolidin-1-ylmethyl)-4-methyl-phenyl]-amine], the negative-log IC50 (pIC50) in assay [1] was not below 8.52; in assay [2], 8.30.
In the case of `Cc1ccc(Nc2ncc3ccn(-c4cc(F)c(CN5CCS(=O)(=O)CC5)c(F)c4)c3n2)cc1CN1CCC(O)C1` (racemic) [Example 425, 1-(5-{7-[4-(1,1-Dioxido-thiomorpholin-4-ylmethyl)-3,5-difluoro-phenyl]-7H-pyrrolo[2,3-d]pyrimidin-2-ylamino}-2-methyl-benzyl)-pyrrolidin-3-ol], the pIC50 is not below 8.52 in assay [1] and 8.44 in assay [2].
Take `COC1CCN(Cc2cc(Nc3ncc4ccn(-c5cc(F)c(CN6CCOCC6)c(F)c5)c4n3)ccn2)C1` (racemic) [Example 426, [7-(3,5-Difluoro-4-morpholin-4-ylmethyl-phenyl)-7H-pyrrolo[2,3-d]pyrimidin-2-yl]-[2-(3-methoxy-pyrrolidin-1-ylmethyl)-pyridin-4-yl]-amine]: the figures for the pIC50 in assay [1] and in assay [2] were not below 8.52 and 7.74, respectively.
With `CN(C)C1CCN(Cc2cc(Nc3ncc4ccn(-c5cc(F)c(CN6CCOCC6)c(F)c5)c4n3)ccn2)C1` (racemic) [Example 427, [7-(3,5-Difluoro-4-morpholin-4-ylmethyl-phenyl)-7H-pyrrolo[2,3-d]pyrimidin-2-yl]-[2-(3-dimethylamino-pyrrolidin-1-ylmethyl)-pyridin-4-yl]-amine], the figures for the pIC50 in assay [1] and in assay [2] were not below 8.52 and 7.48, respectively.
Take `Cc1ccc(Nc2ncc3ccn(-c4cc(F)c(CN5CCOCC5)c(F)c4)c3n2)cc1CN1CCC(N(C)C)C1` (racemic) [Example 434, [7-(3,5-Difluoro-4-morpholin-4-ylmethyl-phenyl)-7H-pyrrolo[2,3-d]pyrimidin-2-yl]-[3-(3-dimethylamino-pyrrolidin-1-ylmethyl)-4-methyl-phenyl]-amine]: the results for the pIC50 in assay [1] and in assay [2] were not below 8.52 and 7.50, respectively.
In the case of `Cc1ccc(Nc2ncc3ccn(-c4cc(F)c(CN5CCS(=O)(=O)CC5)c(F)c4)c3n2)cc1CN1CCC(N(C)C)C1` (racemic) [Example 435, [3-(3-Dimethylamino-pyrrolidin-1-ylmethyl)-4-methyl-phenyl]-{7-[4-(1,1-dioxido-thiomorpholin-4-ylmethyl)-3,5-difluoro-phenyl]-7H-pyrrolo[2,3-d]pyrimidin-2-yl}-amine], the figures for the pIC50 in assay [1] and in assay [2] were not below 8.52 and 8.47, respectively.
Take `Fc1cc(-n2ccc3cnc(Nc4ccc(N5CCNC(C(F)(F)F)C5)nc4)nc32)cc(F)c1CN1CCOCC1` (racemic) [Example 469, [7-(3,5-Difluoro-4-morpholin-4-ylmethyl-phenyl)-7H-pyrrolo[2,3-d]pyrimidin-2-yl]-[6-(3-trifluoromethyl-piperazin-1-yl)-pyridin-3-yl]-amine]: the figures for the pIC50 in assay [1] and in assay [2] were not below 8.52 and 7.60, respectively.
For the compound `Fc1cc(-n2ccc3cnc(Nc4ccc(CN5CCNC(C(F)(F)F)C5)cc4)nc32)cc(F)c1CN1CCOCC1` (racemic) [Example 476, [7-(3,5-Difluoro-4-morpholin-4-ylmethyl-phenyl)-7H-pyrrolo[2,3-d]pyrimidin-2-yl]-[4-(3-trifluoromethyl-piperazin-1-ylmethyl)-phenyl]-amine], the pIC50 in assay [1] was not below 8.52; in assay [2], 7.46.
The like results for `COC1CCN(Cc2ccc(Nc3ncc4ccn(-c5cc(F)c(CN6CCOCC6)c(F)c5)c4n3)cc2)C1` (racemic) [Example 506, [7-(3,5-Difluoro-4-morpholin-4-ylmethyl-phenyl)-7H-pyrrolo[2,3-d]pyrimidin-2-yl]-[4-(3-methoxy-pyrrolidin-1-ylmethyl)-phenyl]-amine] were, in that order, not below 8.52 and 7.42.
On to `Fc1cc(-n2ccc3cnc(Nc4ccc(OC5CCNC5)nc4)nc32)cc(F)c1CN1CCOCC1` (racemic) [Example 519, [7-(3,5-Difluoro-4-morpholin-4-ylmethyl-phenyl)-7H-pyrrolo[2,3-d]pyrimidin-2-yl]-[6-(pyrrolidin-3-yloxy)-pyridin-3-yl]-amine], for which the pIC50 in assay [1] was 8.44; in assay [2], 7.22.
The like results for `Cc1ccc(Nc2ncc3ccn(-c4cc(F)c(CN5CCOCC5)c(F)c4)c3n2)cc1CN1CCN(C)CC1` [Example 331, [7-(3,5-Difluoro-4-morpholin-4-ylmethyl-phenyl)-7H-pyrrolo[2,3-d]pyrimidin-2-yl]-[4-methyl-3-(4-methyl-piperazin-1-ylmethyl)-phenyl]-amine] were, in that order, not below 8.52 and 8.55.
Take `Cc1cc(Nc2ncc3ccn(-c4cc(F)c(CN5CCOCC5)c(F)c4)c3n2)ccc1[C@H]1CCCN1` [Example 346, [7-(3,5-Difluoro-4-morpholin-4-ylmethyl-phenyl)-7H-pyrrolo[2,3-d]pyrimidin-2-yl]-((R)-3-methyl-4-pyrrolidin-2-yl-phenyl)-amine]: the pIC50 is not below 8.52 in assay [1] and 8.55 in assay [2].
For `Fc1cc(-n2ccc3cnc(Nc4ccnc(OC5CCOCC5)c4)nc32)cc(F)c1CN1CCOCC1` [Example 350, [7-(3,5-Difluoro-4-morpholin-4-ylmethyl-phenyl)-7H-pyrrolo[2,3-d]pyrimidin-2-yl]-[2-(tetrahydro-pyran-4-yloxy)-pyridin-4-yl]-amine], the pIC50 is not below 8.52 in assay [1] and 7.66 in assay [2].
For `C[C@@H]1CN(c2ccc(Nc3ncc4ccn(-c5ccc(S(=O)(=O)NC(C)(C)C)cc5)c4n3)cn2)C[C@H](C)N1` [Example 351, N-tert-Butyl-4-{2-[6-(cis-3,5-dimethyl-piperazin-1-yl)-pyridin-3-ylamino]-pyrrolo[2,3-d]pyrimidin-7-yl}-benzenesulfonamide], the pIC50 in assay [1] was 8.37; in assay [2], 8.89.
With `Fc1cc(-n2ccc3cnc(Nc4ccnc(OCCN5CCOCC5)c4)nc32)cc(F)c1CN1CCOCC1` [Example 352, [7-(3,5-Difluoro-4-morpholin-4-yl methyl-phenyl)-7H-pyrrolo[2,3-d]pyrimidin-2-yl]-[2-(2-morpholin-4-yl-ethoxy)-pyridin-4-yl]-amine], the results for the pIC50 in assay [1] and in assay [2] were not below 8.52 and 7.66, respectively.
Consider `Cc1ccc(Nc2ncc3ccn(-c4ccc(S(=O)(=O)NC(C)(C)C)cc4)c3n2)cc1CN1CCN(C)CC1` [Example 353, N-tert-Butyl-4-{2-[4-methyl-3-(4-methyl-piperazin-1-ylmethyl)-phenylamino]-pyrrolo[2,3-d]pyrimidin-7-yl}-benzenesulfonamide], for which the pIC50 was 8.31 in assay [1] and 7.77 in assay [2].
For the compound `Cc1ccc(Nc2ncc3ccn(-c4cc(F)c(CN5CCOCC5)c(F)c4)c3n2)cc1CN1C[C@@H](C)N[C@@H](C)C1` [Example 355, [7-(3,5-Difluoro-4-morpholin-4-yl methyl-phenyl)-7H-pyrrolo[2,3-d]pyrimidin-2-yl]-[3-(cis-3,5-dimethyl-piperazin-1-ylmethyl)-4-methyl-phenyl]-amine], the pIC50 in assay [1] was 8.43; in assay [2] it was 8.28.
